Data taken from ChEMBL document CHEMBL4706492, “[1,2,3]Triazolo[4,5-d]pyrimidine derivatives incorporating (thio)urea moiety as a novel scaffold for LSD1 inhibitors” (Eur J Med Chem, 2020).

Assays:
[1] = tested on: B16-F10; assay: cells; settings: Mus musculus, B16-F10, 48 h
Description: Cytotoxicity against mouse B16-F10 cells assessed as reduction in cell viability after 48 hrs by MTT assay

[2] = tested on: MGC-803; assay: cells; settings: Homo sapiens, MGC-803, 48 h
Description: Cytotoxicity against human MGC-803 cells assessed as reduction in cell viability after 48 hrs by MTT assay

[3] = tested on: PC-3; assay: cells; settings: Homo sapiens, PC-3, 48 h
Description: Cytotoxicity against human PC-3 cells assessed as reduction in cell viability after 48 hrs by MTT assay

[4] = tested on: ECa-109 cell line; assay: cells; settings: Homo sapiens, ECa-109, 48 h
Description: Cytotoxicity against human EC-109 cells assessed as reduction in cell viability after 48 hrs by MTT assay

[5] = target: T1, MAO-A (Homo sapiens, UniProt P21397); assay: Inhibition of MAO-A (unknown origin) at 20 uM relative to control
T1 sequence (P21397 whole entry): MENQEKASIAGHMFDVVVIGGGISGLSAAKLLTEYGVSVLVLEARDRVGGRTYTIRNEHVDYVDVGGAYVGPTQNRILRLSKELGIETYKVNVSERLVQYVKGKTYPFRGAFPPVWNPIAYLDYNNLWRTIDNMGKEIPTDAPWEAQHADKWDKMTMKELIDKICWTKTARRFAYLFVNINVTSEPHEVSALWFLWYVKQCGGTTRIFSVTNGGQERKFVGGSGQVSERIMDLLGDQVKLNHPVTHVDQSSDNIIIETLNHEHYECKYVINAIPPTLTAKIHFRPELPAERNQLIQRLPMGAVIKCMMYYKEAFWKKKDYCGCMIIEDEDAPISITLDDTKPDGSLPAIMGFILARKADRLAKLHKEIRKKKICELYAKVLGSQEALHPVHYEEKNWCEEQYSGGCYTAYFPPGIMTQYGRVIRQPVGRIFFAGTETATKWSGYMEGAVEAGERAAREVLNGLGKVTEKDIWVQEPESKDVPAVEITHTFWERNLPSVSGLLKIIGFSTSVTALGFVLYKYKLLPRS

[6] = target: Cyclin-dependent kinase 2 (Homo sapiens) (UniProt P24941); assay: Inhibition of CDK2 (unknown origin) at 20 uM relative to control
[7] = target: T2, Lysine-specific histone demethylase 1A (Homo sapiens, UniProt O60341); assay: Inhibition of LSD1 in human MGC803 assessed as reduction in H3K4me2 protein expression incubated for 24 hrs by Western blot analysis; settings: MGC-803, dose 10-40 µM
[8] = target: Cyclin-dependent kinase 1 (Homo sapiens) (UniProt P06493); assay: Inhibition of CDK1 (unknown origin) at 20 uM relative to control
Sequence of Cyclin-dependent kinase 1 (Homo sapiens) (P06493 whole entry, looked up): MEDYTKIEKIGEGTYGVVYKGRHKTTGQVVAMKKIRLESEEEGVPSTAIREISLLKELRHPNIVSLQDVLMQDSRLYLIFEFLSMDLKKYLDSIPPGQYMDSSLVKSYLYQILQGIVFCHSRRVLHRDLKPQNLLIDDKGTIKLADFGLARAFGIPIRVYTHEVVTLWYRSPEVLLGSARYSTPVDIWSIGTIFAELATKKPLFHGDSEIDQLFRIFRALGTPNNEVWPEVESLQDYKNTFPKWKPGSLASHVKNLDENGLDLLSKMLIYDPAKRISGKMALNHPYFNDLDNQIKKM

[9] = target: T2, Lysine-specific histone demethylase 1A
[10] = target: T2, Lysine-specific histone demethylase 1A; assay: biochemical
Description: Inhibition of recombinant human LSD1 (157 to 852 residues) expressed in Escherichia coli BL21 (DE) cells using H3K4me2 substrate incubated for 30 mins by amplex red assay

[11] = target: Cyclin-dependent kinase 6 (Homo sapiens) (UniProt Q00534); assay: Inhibition of CDK6 (unknown origin) at 20 uM relative to control
Sequence of Cyclin-dependent kinase 6 (Homo sapiens) (Q00534 whole entry): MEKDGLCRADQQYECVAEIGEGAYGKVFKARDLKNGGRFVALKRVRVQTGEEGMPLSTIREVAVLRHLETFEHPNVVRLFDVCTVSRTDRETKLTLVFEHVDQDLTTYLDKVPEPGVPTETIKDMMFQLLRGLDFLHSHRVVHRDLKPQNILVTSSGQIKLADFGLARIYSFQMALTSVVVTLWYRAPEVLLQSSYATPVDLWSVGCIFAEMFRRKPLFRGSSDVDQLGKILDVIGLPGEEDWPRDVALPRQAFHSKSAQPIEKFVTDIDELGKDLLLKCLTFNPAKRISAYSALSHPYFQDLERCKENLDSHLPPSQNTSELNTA

[12] = target: T3, MAO-B (Homo sapiens, UniProt P27338); assay: Inhibition of MAO-B (unknown origin) at 20 uM relative to control
T3 sequence (P27338 whole entry): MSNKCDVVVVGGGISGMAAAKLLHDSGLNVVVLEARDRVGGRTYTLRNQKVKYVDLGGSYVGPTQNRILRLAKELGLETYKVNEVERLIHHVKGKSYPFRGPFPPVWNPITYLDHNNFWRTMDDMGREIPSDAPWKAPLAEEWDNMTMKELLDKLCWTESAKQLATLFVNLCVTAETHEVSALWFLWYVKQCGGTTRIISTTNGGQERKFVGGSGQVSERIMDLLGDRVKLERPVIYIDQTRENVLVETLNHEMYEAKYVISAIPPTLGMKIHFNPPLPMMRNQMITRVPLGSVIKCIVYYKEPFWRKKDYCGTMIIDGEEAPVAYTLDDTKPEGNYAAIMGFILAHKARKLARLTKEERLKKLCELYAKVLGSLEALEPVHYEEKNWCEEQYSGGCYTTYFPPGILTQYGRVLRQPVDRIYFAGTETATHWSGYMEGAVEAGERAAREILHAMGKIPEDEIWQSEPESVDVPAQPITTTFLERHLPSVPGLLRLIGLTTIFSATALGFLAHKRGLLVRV

[13] = target: Tyrosine-protein kinase BTK (Homo sapiens) (UniProt Q06187); assay: Inhibition of BTK (unknown origin) at 20 uM relative to control
Sequence of Tyrosine-protein kinase BTK (Homo sapiens) (Q06187 whole entry): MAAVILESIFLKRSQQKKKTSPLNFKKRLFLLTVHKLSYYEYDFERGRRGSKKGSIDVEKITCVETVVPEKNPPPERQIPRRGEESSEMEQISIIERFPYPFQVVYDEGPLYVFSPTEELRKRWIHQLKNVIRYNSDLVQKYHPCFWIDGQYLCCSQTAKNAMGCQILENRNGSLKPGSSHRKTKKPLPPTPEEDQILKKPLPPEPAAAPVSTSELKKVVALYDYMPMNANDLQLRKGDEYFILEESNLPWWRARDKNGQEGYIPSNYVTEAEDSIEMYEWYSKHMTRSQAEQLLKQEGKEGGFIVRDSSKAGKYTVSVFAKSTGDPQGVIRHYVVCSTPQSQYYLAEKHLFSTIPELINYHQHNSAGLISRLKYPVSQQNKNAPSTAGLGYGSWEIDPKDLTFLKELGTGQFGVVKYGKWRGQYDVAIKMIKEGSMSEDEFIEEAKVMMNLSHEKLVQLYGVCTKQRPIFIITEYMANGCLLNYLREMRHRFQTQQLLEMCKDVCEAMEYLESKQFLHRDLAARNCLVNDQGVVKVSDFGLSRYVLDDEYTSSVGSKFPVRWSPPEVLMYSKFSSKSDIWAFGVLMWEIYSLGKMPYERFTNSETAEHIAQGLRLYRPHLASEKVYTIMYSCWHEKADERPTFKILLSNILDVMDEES

| SMILES | IC50 [1] | IC50 [2] | IC50 [3] | IC50 [4] | inhibition at 20 µM [5] | inhibition [6] | inhibition [7] | inhibition [8] | Ratio IC50 [9] | IC50 [10] | inhibition [11] | inhibition at 20 µM [12] | inhibition [13] |
| --- | --- | --- | --- | --- | --- | --- | --- | --- | --- | --- | --- | --- | --- |
| CCCSc1nc2c(nnn2CCNC(=S)Nc2ccccc2Cl)c(=O)[nH]1 | 14.2 µM | 26 µM | 23.4 µM | > 64 µM |  |  |  |  |  |  |  |  |  |
| CCCSc1nc2c(nnn2CCNC(=S)NCc2ccccc2)c(=O)[nH]1 | > 64 µM | 46.3 µM | 25.5 µM | > 64 µM |  |  |  |  |  |  |  |  |  |
| CCCSc1nc2c(nnn2CCNC(=S)Nc2cccc3ccccc23)c(=O)[nH]1 | 11.5 µM | 8.3 µM | 9.15 µM | 9.88 µM | 3.9% | < 10% | Dose-dependent effect | < 10% | 3 | 9.75 µM | 20% | 11.8% | < 10% |
| CCCSc1nc2c(nnn2CCNC(=S)Nc2ccc(OC)cc2)c(=O)[nH]1 | > 64 µM | 20.7 µM | 15.6 µM | 19.7 µM |  |  |  |  |  |  |  |  |  |
